Measured values reported in paper PMC10017709, “Structural basis of selective cannabinoid CB2 receptor activation” (Nature Communications, 2023).
Values joined by “and” are separate entries in the source; they are usually repeats but may differ in a detail not shown here. Equal entries are not always repeated. Where two headings read alike, the source gives them in different places.

Assays:
CB2R WT = CB2R WT (Homo sapiens, UniProt P34972); test: [35S]GTPγS G protein activation assay, CB2R WT; format: biochemical; conditions: for [35S]GTPγS binding, percentage of WT / [35S]GTPγS binding, percentage of CP55,940: individual replicates
hCB2R [1] = target: T1, hCB2R (Homo sapiens, UniProt P34972); test: [3H]RO6957022 competition association assay; format: binding; conditions: for percentage specific [3H]RO6957022 binding (competition association): individual replicates
T1 construct: host or cells: CHO-K1 (CHOK1_hCB2bgal, PathHunter), membranes

CB2R-Quadruple^TM1,7 = CB2R-Quadruple^TM1,7 (Homo sapiens, UniProt P34972, C40S/K279T/K33Q/V36I); test: [35S]GTPγS assay, CB2R quadruple mutant; format: biochemical; conditions: for [35S]GTPγS binding, percentage of WT: QuadrupleTM1,7, individual replicates
Description: In short, transient HEK293T membrane homogenates (10 µg/well) were diluted in assay buffer (50 mM Tris-HCl (pH 7.4), 5 mM MgCl2, 150 mM NaCl, 1 mM EDTA, 0.05% BSA (w/v) and 1 mM DTT, freshly prepared every day) and were pretreated with 10 µg saponin and 1 µM GDP. For endocannabinoid samples, the membranes were additionally pretreated for 30 min with 50 µM PMSF before agonist addition. […] Basal receptor activity was determined in the presence of vehicle only (0.2% DMSO/acetonitrile). […] Filtration was performed, and filter-bound radioactivity was determined as described under [^3H]RO6957022 Competition Association Assays except for using ice-cold 50 mM Tris-HCl (pH 7.4), 5 mM MgCl2 buffer.

CB2R-E181^ECL2D = CB2R-E181^ECL2D (Homo sapiens, UniProt P34972, E181D); test: [35S]GTPγS assay, CB2R E181D mutant; format: biochemical
hCB2R [2] = target: T1, hCB2R; test: [3H]RO6957022 displacement assay; format: binding; conditions: individual replicates
CB2R-L182^ECL2I = CB2R-L182^ECL2I (Homo sapiens, UniProt P34972, L182I); test: [35S]GTPγS assay, CB2R L182I mutant; format: biochemical
CB1R QuadrupleTM1,7 = test: [35S]GTPγS assay, CB1R quadruple mutant; format: biochemical, human
CB2R-L185^ECL2H = CB2R-L185^ECL2H (Homo sapiens, UniProt P34972, L185H); test: [35S]GTPγS assay, CB2R L185H mutant; format: biochemical
CB2R-H95^2.65A = CB2R-H95^2.65A (Homo sapiens, UniProt P34972, H95A); test: [35S]GTPγS assay, CB2R H95A mutant; format: biochemical
hCB1R WT = hCB1R WT (Homo sapiens, UniProt P21554); test: [35S]GTPγS G protein activation assay, CB1R WT; format: biochemical
CB1R-H270^ECL2L = CB1R-H270^ECL2L (Homo sapiens, UniProt P21554, H270L); test: [35S]GTPγS assay, CB1R H270L mutant; format: biochemical
CB2R-I110^3.29L = CB2R-I110^3.29L (Homo sapiens, UniProt P34972, I110L); test: [35S]GTPγS assay, CB2R I110L mutant; format: biochemical
CB2R-V261^6.51L = CB2R-V261^6.51L (Homo sapiens, UniProt P34972, V261L); test: [35S]GTPγS assay, CB2R V261L mutant; format: biochemical
CB2R-I110^3.29A = CB2R-I110^3.29A (Homo sapiens, UniProt P34972, I110A); test: [35S]GTPγS assay, CB2R I110A mutant; format: biochemical
CB2R-S285^7.39A = CB2R-S285^7.39A (Homo sapiens, UniProt P34972, S285A); test: [35S]GTPγS assay, CB2R S285A mutant; format: biochemical
CB1R D266ECL2E = target: T2, CB1R D266ECL2E (Homo sapiens, UniProt P21554, D266E); test: [35S]GTPγS assay, CB1R D266E mutant; format: biochemical
T2 construct: The WT CB1R and CB2R genes were subcloned into vector pcDNA3.1; HA signal peptide (N); expressed in transfected cells; host or cells: HEK293T (transient, membrane homogenates)

CB1R I267ECL2L = CB1R I267ECL2L (Homo sapiens, UniProt P21554, I267L); test: [35S]GTPγS assay, CB1R I267L mutant; format: biochemical
CB2R-F117^3.36A = CB2R-F117^3.36A (Homo sapiens, UniProt P34972, F117A); test: [35S]GTPγS assay, CB2R F117A mutant; format: biochemical
[3] = tested on: cisplatin-induced nephropathy, CB2R knockout mice (CB2R−/−); test: Cisplatin-induced nephropathy in CB2R knockout mice; format: in vivo; conditions: Cisplatin KO; mean, n = 6
Description: (§1) Ten to twelve-week-old male/female C57BL/6J mice were obtained from The Jackson Laboratory (Bar Harbor, ME, USA). CB2R knockout mice (CB2R^−/−) and their wild-type littermates (CB2R^+/+) were developed as described previously and had been backcrossed to a C57BL/6J background. All animals were kept in a temperature-controlled environment (20–22 °C) with a 12 h light–dark cycle and were always allowed free access to food and water. All animal experiments reported in this manuscript complied with the National Institutes of Health “Guide for the Care and Use of Laboratory Animals” (NIH publication 86–23 revised 1985) and were approved by the Institutional Animal Care and Use Committee of the National Institute on Alcohol Abuse and Alcoholism (Bethesda, MD).
(§2) The well-established model of cisplatin-induced nephropathy was used[63]. Mice (CB2R^−/− and CB2R^+/+) were sacrificed 72 h after a single injection of cisplatin (cis-diamine platinum (II) dichloride (Sigma#P4394) 25 mg/kg i.p.; freshly dissolved in physiological saline) by cervical dislocation under deep anesthesia with 5% isoflurane, for collection of blood and tissue samples. LEI-102 was given i.p. or by oral gavage (p.o.) at 0.3, 3.0, and 10 mg/kg every day, starting 1.5 h before the cisplatin exposure. The drug was dissolved in a vehicle of DMSO:Tween 80:saline, 1:1:18. After administration of LEI‐102, mice were killed by cervical dislocation under deep anesthesia with 5% isoflurane, for collection of blood and tissue samples at the time described in the figure. The tetrad assay in mice has previously been described in detail.
(§3) Markers of kidney dysfunction (BUN and CREA), histopathology (PAS staining), immunostaining or ELISA for 3-nitrotyrosine (3-NT; Cell Biolabs #STA-305) and 4-hydroxynonenal (4-HNE; Cell Biolabs#STA-838), and real-time PCR (Primers from Qiagen, SYBER Green Vita Scientific#MEIF01301, High-Capacity cDNA Reverse Transcription Kit, Thermo Fisher Scientific#4368813) for inflammatory cytokines were performed as previously described. Tubular damage scores were determined based on the percentage of tubules showing epithelial necrosis where 0= normal; 1, <10%; 2, 10–25%; 3, 26–75%; 4, >75%. Tubular necrosis was defined as the loss of the proximal tubular brush border, blebbing of apical membranes, tubular epithelial cell detachment from the basement membrane, or intraluminal aggregation of cells and proteins. The morphometric examination was performed in a blinded manner. Ten fields were scored from each mouse kidneys at 200× magnification, and average scores were determined for each mouse. For final quantification graph, average tubular damage scores of six mice/group were plotted.

[4] = tested on: cisplatin-induced nephropathy; test: Cisplatin-induced nephropathy in wild type mice; format: in vivo, C57BL/6J mice
Description: as §1, §2, §3

[5] = Cisplatin WT (Fig5F), mean, n = 6
[6] = cisplatin 25 mg/kg i.p. alone, 72 h, mean, n = 6 (Fig5A)
[7] = kidney, cisplatin alone, mean, n = 6, vehicle mean 1.0
[8] = kidney, cisplatin alone, mean, n = 6, vehicle mean 1.00

T1 sequence (P34972 whole entry): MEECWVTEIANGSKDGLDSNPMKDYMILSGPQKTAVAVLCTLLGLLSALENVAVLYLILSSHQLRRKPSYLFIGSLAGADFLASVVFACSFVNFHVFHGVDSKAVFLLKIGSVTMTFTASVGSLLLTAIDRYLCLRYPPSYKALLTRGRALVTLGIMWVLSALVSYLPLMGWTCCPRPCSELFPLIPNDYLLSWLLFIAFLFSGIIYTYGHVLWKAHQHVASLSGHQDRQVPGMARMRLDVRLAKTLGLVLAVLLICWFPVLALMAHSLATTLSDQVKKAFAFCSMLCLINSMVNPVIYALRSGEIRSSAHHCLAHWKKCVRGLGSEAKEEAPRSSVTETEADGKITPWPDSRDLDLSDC
Chain of CB2R WT (P34972 whole entry): as above
Chain of CB2R-Quadruple^TM1,7 (P34972 whole entry K33Q/V36I/C40S/K279T): as the sequence (P34972 whole entry) above, with K33Q, V36I, C40S, K279T counted along it
Chain of CB2R-L182^ECL2I (P34972 whole entry L182I): as the sequence (P34972 whole entry) above, with L182I counted along it
Chain of CB2R-E181^ECL2D (P34972 whole entry E181D): as the sequence (P34972 whole entry) above, with E181D counted along it
Chain of CB2R-H95^2.65A (P34972 whole entry H95A): as the sequence (P34972 whole entry) above, with H95A counted along it
Chain of CB2R-L185^ECL2H (P34972 whole entry L185H): as the sequence (P34972 whole entry) above, with L185H counted along it
Chain of CB2R-V261^6.51L (P34972 whole entry V261L): as the sequence (P34972 whole entry) above, with V261L counted along it
Chain of CB2R-I110^3.29L (P34972 whole entry I110L): as the sequence (P34972 whole entry) above, with I110L counted along it
Chain of CB2R-I110^3.29A (P34972 whole entry I110A): as the sequence (P34972 whole entry) above, with I110A counted along it
Chain of hCB1R WT (P21554 whole entry): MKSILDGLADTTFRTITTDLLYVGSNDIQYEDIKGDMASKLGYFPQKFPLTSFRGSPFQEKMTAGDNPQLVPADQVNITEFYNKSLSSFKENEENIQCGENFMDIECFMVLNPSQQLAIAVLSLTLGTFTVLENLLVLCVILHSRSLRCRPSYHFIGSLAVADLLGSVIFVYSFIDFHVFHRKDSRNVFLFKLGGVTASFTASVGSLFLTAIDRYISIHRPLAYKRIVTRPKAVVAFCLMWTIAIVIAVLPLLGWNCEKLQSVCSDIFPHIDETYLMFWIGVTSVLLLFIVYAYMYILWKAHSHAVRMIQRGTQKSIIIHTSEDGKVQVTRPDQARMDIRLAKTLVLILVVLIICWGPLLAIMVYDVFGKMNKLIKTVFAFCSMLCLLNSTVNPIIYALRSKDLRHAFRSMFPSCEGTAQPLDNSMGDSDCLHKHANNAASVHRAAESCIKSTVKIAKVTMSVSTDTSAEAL
Chain of CB1R-H270^ECL2L (P21554 whole entry H270L): as the sequence (P21554 whole entry) above, with H270L counted along it
Chain of CB1R I267ECL2L (P21554 whole entry I267L): as the sequence (P21554 whole entry) above, with I267L counted along it
Chain of CB2R-S285^7.39A (P34972 whole entry S285A): as the sequence (P34972 whole entry) above, with S285A counted along it
Chain of CB2R-F117^3.36A (P34972 whole entry F117A): as the sequence (P34972 whole entry) above, with F117A counted along it
T2 sequence (P21554 whole entry D266E): as the sequence (P21554 whole entry) above, with D266E counted along it

## CCCCC/C=C\C/C=C\C/C=C\C/C=C\CCCC(=O)NCCO [AEA, anandamide]
CB2R WT; CB2R WT, maximum effect at 10 µM compared to WT (Suppl. Table 6), read-out: Emax (%)
  Emax: 106 ± 7%
CB2R WT; CB2R WT, maximum effect compared to CP55,940, read-out: Emax (%)
  Emax: 60 ± 5%
CB2R WT; log [ligand] (M) -5
  [35S]GTPγS binding, percentage of WT: 119.90 percentage of WT and 99.77 percentage of WT and 99.12 percentage of WT
CB2R WT; log [ligand] (M) -6
  [35S]GTPγS binding, percentage of WT: 73.32 percentage of WT and 72.65 percentage of WT and 56.56 percentage of WT
CB2R WT; log [ligand] (M) -7
  [35S]GTPγS binding, percentage of WT: 21.64 percentage of WT and 23.33 percentage of WT and 32.57 percentage of WT
CB2R WT; log [ligand] (M) -8
  [35S]GTPγS binding, percentage of WT: 2.55 percentage of WT and 4.67 percentage of WT and 26.67 percentage of WT
CB2R WT; log [agonist] (M) -5
  [35S]GTPγS binding, percentage of CP55,940: 55.30% and 54.57% and 71.23%
CB2R WT; log [agonist] (M) -6
  [35S]GTPγS binding, percentage of CP55,940: 33.82% and 39.74% and 40.65%
CB2R WT; log [agonist] (M) -7
  [35S]GTPγS binding, percentage of CP55,940: 9.98% and 12.76% and 23.41%
CB2R WT; log [agonist] (M) -8
  [35S]GTPγS binding, percentage of CP55,940: 1.18% and 2.55% and 19.17%
hCB2R [1]; Time 1 min
  percentage specific [3H]RO6957022 binding (competition association): 4.42% and 11.28% and 5.44%
hCB2R [1]; Time 3 min
  percentage specific [3H]RO6957022 binding (competition association): 16.17% and 23.05% and 21.34%
hCB2R [1]; Time 5 min
  percentage specific [3H]RO6957022 binding (competition association): 26.28% and 26.79% and 25.51%
hCB2R [1]; Time 7 min
  percentage specific [3H]RO6957022 binding (competition association): 34.14% and 35.42% and 31.98%
hCB2R [1]; Time 10 min
  percentage specific [3H]RO6957022 binding (competition association): 34.18% and 41.87% and 46.59%
hCB2R [1]; Time 20 min
  percentage specific [3H]RO6957022 binding (competition association): 41.44% and 51.99% and 48.92%
hCB2R [1]; Time 30 min
  percentage specific [3H]RO6957022 binding (competition association): 50.41% and 53.24% and 59.83%
hCB2R [1]; Time 45 min
  percentage specific [3H]RO6957022 binding (competition association): 45.80% and 66.77% and 61.94%
hCB2R [1]; Time 60 min
  percentage specific [3H]RO6957022 binding (competition association): 54.67% and 64.58% and 70.00%
hCB2R [1]; Time 90 min
  percentage specific [3H]RO6957022 binding (competition association): 60.96% and 62.48% and 62.68%
hCB2R [1]; Time 120 min
  percentage specific [3H]RO6957022 binding (competition association): 62.19% and 63.42% and 54.77%
hCB2R [1]; at 1 µM agonist, ET = 1/(kon ∙ 1 × 10-6)
  ET (engagement time): 152 s and 152 ± 10.4 s
CB2R-Quadruple^TM1,7; Quadruple TM1,7 mutant, at 10 µM compared to WT, read-out: Emax (%)
  Emax: 24 ± 7%
CB2R-Quadruple^TM1,7; log [ligand] (M) -5
  [35S]GTPγS binding, percentage of WT: 32.30 percentage of WT and 9.42 percentage of WT and 29.02 percentage of WT
CB2R-Quadruple^TM1,7; log [ligand] (M) -6
  [35S]GTPγS binding, percentage of WT: -7.36 percentage of WT and -10.83 percentage of WT and 27.74 percentage of WT
CB2R-Quadruple^TM1,7; log [ligand] (M) -7
  [35S]GTPγS binding, percentage of WT: -34.86 percentage of WT and -19.55 percentage of WT and 15.75 percentage of WT
CB2R-Quadruple^TM1,7; log [ligand] (M) -8
  [35S]GTPγS binding, percentage of WT: 9.32 percentage of WT and -29.85 percentage of WT and 11.86 percentage of WT
CB2R-E181^ECL2D; E181D mutant, at 10 µM compared to WT, read-out: Emax (%)
  Emax: 14 ± 5%
hCB2R [2]; log [agonist] (M) -5
  percentage specific [3H]RO6957022 binding (displacement): 3.79% and 18.06% and 16.04%
hCB2R [2]; log [agonist] (M) -6
  percentage specific [3H]RO6957022 binding (displacement): 47.48% and 65.38% and 68.38%
hCB2R [2]; log [agonist] (M) -7
  percentage specific [3H]RO6957022 binding (displacement): 87.86% and 102.56% and 105.31%
hCB2R [2]; log [agonist] (M) -8
  percentage specific [3H]RO6957022 binding (displacement): 101.15% and 95.97% and 108.64%
CB2R-L182^ECL2I; L182I mutant, at 10 µM compared to WT, read-out: Emax (%)
  Emax: 5 ± 17%
CB1R QuadrupleTM1,7
  Agonist-mediated activation: 1.6 ± 0.1 fold over its basal
CB2R-L185^ECL2H; L185H mutant, at 10 µM compared to WT, read-out: Emax (%)
  Emax: 210 ± 61%

## CCCCCCC(C)(C)c1ccc([C@@H]2C[C@H](O)CC[C@H]2CCCO)c(O)c1 [CP55,940]
CB2R WT
  Emax: 98 ± 4%
  Emax (%): 99 ± 3%
CB2R-H95^2.65A
  Emax: 68 ± 11%
  drop in potency compared to WT: 40 fold
hCB1R WT
  Agonist-mediated activation: 1.2 ± 0.1 fold over its basal
CB1R-H270^ECL2L
  Agonist-mediated activation: 1.6 ± 0.1 fold over its basal
CB2R-I110^3.29L
  Emax: 96 ± 3%
CB2R-Quadruple^TM1,7
  Emax: 18 ± 14%
CB2R-V261^6.51L
  Emax: 12 ± 7%
CB2R-I110^3.29A
  Emax: 30 ± 2%
CB2R-S285^7.39A
  Emax: 25 ± 5%
CB2R-E181^ECL2D
  Emax: 19 ± 10%
CB1R D266ECL2E
  Agonist-mediated activation: 1.4 ± 0.1 fold over its basal
CB1R I267ECL2L
  Agonist-mediated activation: 1.0 ± 0.0 fold over its basal
CB2R-L182^ECL2I
  Emax: 19 ± 2%
CB2R-F117^3.36A
  Emax: -1 ± 14%
CB1R QuadrupleTM1,7
  Agonist-mediated activation: 1.8 ± 0.1 fold over its basal
CB2R-L185^ECL2H
  Emax: 142 ± 16%

## N.N.[Cl][Pt][Cl] [Cisplatin, cis-diamine platinum (II) dichloride]
[3]
  BUN: 290
  CREA: 3.7
  Tubular damage score: 2.86
[4]; [5]
  BUN: 170
  CREA: 1.7
  Tubular damage score: 2.16
[4]; [6]
  BUN: 167.5 mg/dL
  CREA: 1.8 mg/dL
[4]; cisplatin 25 mg/kg i.p., 72 h, wild type mice vs vehicle
  serum creatinine and blood urea nitrogen levels: marked elevations
[4]; cisplatin alone, PAS staining, score 0-4, mean, n = 6 (Fig5B)
  Tubular damage score: 2.4
[4]; [7]
  HNE (HNE adducts, ELISA): 4.3
  NT (protein nitration, ELISA): 5.7
[4]; [8]
  IL1b expression (real-time PCR): 4.93
  TNFa expression (real-time PCR): 3.36
